Reference: patent US20250127807A1, “TREATMENT OF VAGINAL DYSBIOTIC CONDITIONS WITH ASSOCIATED ELEVATED VAGINAL CALPROTECTIN” (priority 2022, published 2025)

Key:
[1] = Modeling of Mn and Zn levels in vaginal fluid delivered from slow release Z2 formulation; parameters: species or system women
Procedure: Six women each received 3 doses of formulation Z2 separated by 48 hours. Vaginal fluid swabs were collected at t=0, 2, 4, 8, 12, 18, 24, 30, 36, and 42 hours post dose and vaginal fluid concentrations of lactoferrin and mannitol were determined. Average concentrations for the combined 18 dose administrations were obtained based on calculation of Area Under Curve for the locally estimated scatterplot smoothing (Loess) profile of lactoferrin and mannitol concentrations assuming 6 mL volume of distribution.

[2] = parameters: species or system women; conditions: female, human, in vivo
Procedure: Elevated levels of calprotectin in BV and in L iners-dominated vaginal microbiomes sequester manganese and zinc, preventing growth of L crispatus its maintenance of a healthy vaginal microbiome. […] Six women each received 3 doses of formulation Z2 separated by 48 hours. Vaginal fluid swabs were collected at t=0, 2, 4, 8, 12, 18, 24, 30, 36, and 42 hours post dose and vaginal fluid concentrations of lactoferrin and mannitol were determined. Average concentrations for the combined 18 dose administrations were obtained based on calculation of Area Under Curve for the locally estimated scatterplot smoothing (Loess) profile of lactoferrin and mannitol concentrations assuming 6 mL volume of distribution. The average concentration of lactoferrin was 33 mg/mL and the average concentrations of mannitol was 20 mg/mL. Average concentrations of both substances correspond to 0.1 fraction or 10% of the administered dose, 300 mg lactoferrin and 195 mg mannitol per Z2 tablet respectively. The 0.1 factor was used to estimate the expected average elemental Mn concentration based on the initial dose per tablet.

[Mn+2] [Mn, manganese]
predicted Cmax, fold below the concentration of Mn used in MRS media ([1]; 50 μg dose of Mn): ~2 fold | predicted Cmax, fold above the amount of Mn that could be bound by calprotectin in BV ([1]; 50 μg dose of Mn, 95% CI of median 70 M based on 1:1 Mn/CP): ~2 fold

[Zn] [Zn, zinc]
predicted Cmax, fold below the concentration of Zn used in MRS media ([1]; 250 μg dose of Zn): ~5 fold | predicted Cmax, fold above the amount of Zn that could be bound by calprotectin in BV ([1]; 250 μg dose of Zn, 95% CI of median based on 2:1 Zn/CP): ~4 fold

OC[C@@H](O)[C@@H](O)[C@H](O)[C@H](O)CO [mannitol, reference compound]
average concentration as fraction of the administered dose [2]: 10%
